Test results as given in ChEMBL document CHEMBL1201862, “PubChem BioAssay data set” (2004).
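1) Cells in 96-well plates. 2) Compound, 48 h, 5 concentrations. 3) Linear interpolation between surrounding doses. 4) Unreached endpoint = highest concentration. Here, GI50 denotes the concentration required for 50% inhibition of growth.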 Active and inactive are the calls of the source. Rule as the data show it: active = GI50 up to about 1.1 µM and inactive = higher.

What was measured:
Test in all cases: DTP human tumour cell line panel, 48 h
[1] = system: NCI-H460
[2] = system: SK-OV-3
[3] = system: U-251
[4] = system: MDA-MB-231
[5] = system: SK-MEL-28
[6] = system: HCT-15
[7] = system: ACHN
[8] = system: NCI-H226
[9] = system: SN12C
[10] = system: M14
[11] = system: DU-145
[12] = system: SNB-75
[13] = system: MDA-N
[14] = system: T47D
[15] = system: NCI-H23
[16] = system: MCF7
[17] = system: EKVX
[18] = system: HL-60
[19] = system: CCRF-CEM
[20] = system: LOX IMVI
[21] = system: HT-29
[22] = system: SR
[23] = system: SNB-19
[24] = system: K562
[25] = system: PC-3
[26] = system: HCT-116
[27] = system: IGROV-1
[28] = system: Hs-578T
[29] = system: NCI-H522
[30] = system: UACC-257
[31] = system: SK-MEL-5
[32] = system: HOP-62
[33] = system: RPMI-8226
[34] = system: OVCAR-8
[35] = system: OVCAR-5
[36] = system: BT-549
[37] = system: A498
[38] = system: Malme-3M
[39] = system: KM12
[40] = system: SF-295
[41] = system: CAKI-1
[42] = system: UO-31
[43] = system: SW-620
[44] = system: OVCAR-4
[45] = system: TK-10
[46] = system: MDA-MB-435
[47] = system: COLO 205
[48] = system: RXF 393
[49] = system: OVCAR-3
[50] = system: NCI/ADR-RES
[51] = system: SK-MEL-2
[52] = system: HOP-92
[53] = system: MOLT-4
[54] = system: UACC-62
[55] = system: SF-268
[56] = system: HCC 2998
[57] = system: A549
[58] = system: SF-539
[59] = system: 786-0

OC(c1cc(C23CC4CC(CC(C4)C2)C3)nc2c(Cl)cc(Cl)cc12)C1CCCCN1 (stereo not drawn)
GI50 [1]: 1.61 µM (inactive) | GI50 [2]: 1.77 µM (inactive) | GI50 [3]: 1.51 µM (inactive) | GI50 [4]: 1.82 µM (inactive) | GI50 [5]: 2.06 µM (inactive) | GI50 [6]: 1.83 µM | GI50 [7]: 1.69 µM (inactive) | GI50 [8]: 2.07 µM (inactive) | GI50 [9]: 1.62 µM (inactive) | GI50 [10]: 1.8 µM (inactive) | GI50 [11]: 1.77 µM (inactive) | GI50 [12]: 1.73 µM (inactive) | GI50 [13]: 1.68 µM (inactive) | GI50 [14]: 1.79 µM (inactive) | GI50 [15]: 1.85 µM (inactive) | GI50 [16]: 1.6 µM (inactive) | GI50 [17]: 1.73 µM (inactive) | GI50 [18]: 2.11 µM (inactive) | GI50 [19]: 743 nM (active) | GI50 [20]: 1.49 µM (inactive) | GI50 [21]: 1.58 µM (inactive) | GI50 [22]: 705 nM (active) | GI50 [23]: 1.6 µM (inactive) | GI50 [24]: 1.51 µM (inactive) | GI50 [25]: 1.62 µM (inactive) | GI50 [26]: 1.36 µM (inactive) | GI50 [27]: 1.77 µM (inactive) | GI50 [28]: 2.03 µM (inactive) | GI50 [29]: 1.57 µM (inactive) | GI50 [30]: 1.97 µM (inactive) | GI50 [31]: 2.63 µM (inactive) | GI50 [32]: 1.53 µM (inactive) | GI50 [33]: 1.77 µM (inactive) | GI50 [34]: 2.36 µM (inactive) | GI50 [35]: 1.79 µM (inactive) | GI50 [36]: 2.02 µM (inactive) | GI50 [37]: 1.7 µM (inactive) | GI50 [38]: 1.81 µM (inactive) | GI50 [39]: 1.67 µM (inactive) | GI50 [40]: 1.67 µM (inactive) | GI50 [41]: 1.69 µM (inactive) | GI50 [42]: 0.204 µM (active) | GI50 [43]: 1.57 µM (inactive) | GI50 [44]: 1.69 µM (inactive) | GI50 [45]: 1.84 µM (inactive) | GI50 [46]: 1.67 µM (inactive) | GI50 [47]: 1.71 µM (inactive) | GI50 [48]: 1.6 µM (inactive) | GI50 [49]: 1.78 µM (inactive) | GI50 [50]: 2.06 µM (inactive) | GI50 [51]: 1.87 µM (inactive) | GI50 [52]: 2.05 µM (inactive) | GI50 [53]: 608 nM (active) | GI50 [54]: 1.76 µM (inactive) | GI50 [55]: 1.79 µM (inactive) | GI50 [56]: 0.344 µM (active) | GI50 [57]: 1.82 µM (inactive) | GI50 [58]: 2.13 µM (inactive) | GI50 [59]: 1.57 µM (inactive)

O=C(/C=C/c1cccc2ccccc12)c1ccccc1
GI50 [1]: 16.1 µM (inactive) | GI50 [2]: 16.3 µM (inactive) | GI50 [3]: 8.63 µM (inactive) | GI50 [4]: 8.93 µM (inactive) | GI50 [5]: 17.7 µM (inactive) | GI50 [6]: 6.85 µM | GI50 [7]: 13.9 µM (inactive) | GI50 [8]: 12.7 µM (inactive) | GI50 [9]: 7.89 µM (inactive) | GI50 [10]: 14.6 µM (inactive) | GI50 [11]: 14.8 µM (inactive) | GI50 [12]: 15.9 µM (inactive) | GI50 [13]: 5.71 µM (inactive) | GI50 [14]: 11.7 µM (inactive) | GI50 [15]: 13.7 µM (inactive) | GI50 [16]: 1.29 µM (inactive) | GI50 [17]: 13.4 µM (inactive) | GI50 [18]: 2.88 µM (inactive) | GI50 [19]: 3280 nM (inactive) | GI50 [20]: 1.99 µM (inactive) | GI50 [21]: 4.57 µM (inactive) | GI50 [22]: 2900 nM (inactive) | GI50 [23]: 14.5 µM (inactive) | GI50 [24]: 2.74 µM (inactive) | GI50 [25]: 7.05 µM (inactive) | GI50 [26]: 10.3 µM (inactive) | GI50 [27]: 7.45 µM (inactive) | GI50 [28]: 26.3 µM (inactive) | GI50 [29]: 10.1 µM (inactive) | GI50 [30]: 15 µM (inactive) | GI50 [31]: 12.5 µM (inactive) | GI50 [32]: 19.8 µM (inactive) | GI50 [33]: 2.31 µM (inactive) | GI50 [34]: 8.45 µM (inactive) | GI50 [35]: 13.8 µM (inactive) | GI50 [36]: 13.2 µM (inactive) | GI50 [37]: 17.4 µM (inactive) | GI50 [38]: 12.9 µM (inactive) | GI50 [39]: 4.71 µM (inactive) | GI50 [40]: 16.5 µM (inactive) | GI50 [41]: 12.2 µM (inactive) | GI50 [42]: 11.6 µM (inactive) | GI50 [43]: 4 µM (inactive) | GI50 [44]: 12.9 µM (inactive) | GI50 [45]: 6.35 µM (inactive) | GI50 [46]: 8.81 µM (inactive) | GI50 [47]: 20.7 µM (inactive) | GI50 [48]: 10.9 µM (inactive) | GI50 [49]: 9.16 µM (inactive) | GI50 [50]: 14 µM (inactive) | GI50 [51]: 14 µM (inactive) | GI50 [52]: 18.3 µM (inactive) | GI50 [53]: 3940 nM (inactive) | GI50 [54]: 11.7 µM (inactive) | GI50 [55]: 16.5 µM (inactive) | GI50 [56]: 15.7 µM (inactive) | GI50 [57]: 15.2 µM (inactive) | GI50 [58]: 3.57 µM (inactive) | GI50 [59]: 8.83 µM (inactive)
